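1) Cells in 96-well plates. 2) Compound, 48 h, 5 concentrations. 3) Linear interpolation between surrounding doses. 4) Unreached endpoint = highest concentration. At the GI50, growth is halved. TGI: total growth inhibition.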
Legend:
Assay in all cases: growth of human tumour cells (NCI), 48 h
A549 NSCLC = tested on: A549 NSCLC
ACHN renal = tested on: ACHN renal
BT-549 breast = tested on: BT-549 breast
HS 578T breast = tested on: HS 578T breast
MDA-MB-435 = tested on: MDA-MB-435
NCI-H522 lung = tested on: NCI-H522 lung
OVCAR-8 ovarian = tested on: OVCAR-8 ovarian
PC-3 prostate = tested on: PC-3 prostate
RPMI-8226 leukemia = tested on: RPMI-8226 leukemia
SK-MEL-2 melanoma = tested on: SK-MEL-2 melanoma

SMILES | GI50 (A549 NSCLC) | TGI (A549 NSCLC) | GI50 (ACHN renal) | TGI (ACHN renal) | GI50 (BT-549 breast) | TGI (BT-549 breast) | GI50 (HS 578T breast) | TGI (HS 578T breast) | GI50 (MDA-MB-435) | TGI (MDA-MB-435) | GI50 (NCI-H522 lung) | TGI (NCI-H522 lung) | GI50 (OVCAR-8 ovarian) | TGI (OVCAR-8 ovarian) | GI50 (PC-3 prostate) | TGI (PC-3 prostate) | GI50 (RPMI-8226 leukemia) | TGI (RPMI-8226 leukemia) | GI50 (SK-MEL-2 melanoma) | TGI (SK-MEL-2 melanoma)
COc1ccc(-c2nnc(SCC(=O)Nc3ccc(/C(C)=N\O)cc3)n2-c2ccccc2)cc1OC | 9.73 µM | > 100 µM | 8.08 µM | > 100 µM | 13.7 µM | > 100 µM | 3.75 µM | > 100 µM | > 100 µM | > 100 µM | 21.4 µM | > 100 µM | 7.36 µM | > 100 µM | > 100 µM | > 100 µM | > 100 µM | > 100 µM | 5.04 µM | 28.8 µM
C=C(C)[C@@H]1CC[C@]2(C(=O)NCCNCCNCCN)CC[C@]3(C)[C@H](CC[C@@H]4[C@@]5(C)CC[C@H](O)C(C)(C)[C@@H]5CC[C@]43C)[C@@H]12 | 4.97 µM | 21.4 µM | 12 µM | 27.3 µM | 15 µM | 57.5 µM | 20.1 µM | 66.7 µM | 13.4 µM | 27.2 µM | 10.3 µM | 25.4 µM | 18.8 µM | 47.1 µM | 2.95 µM | 18.6 µM | 2.81 µM | 27.6 µM | 16.8 µM | 37.3 µM
CS(=O)(=O)c1ccc(-c2cnc(N)c(C(=O)Nc3ccccc3)n2)cc1 | > 24.2 µM | > 100 µM | 3.92 µM | 29.6 µM | 7.87 µM | 40.8 µM | > 100 µM | > 100 µM | > 100 µM | > 100 µM | > 54.8 µM | > 100 µM | > 45 µM | > 100 µM | > 100 µM | > 100 µM | > 100 µM | > 100 µM | 7.87 µM | > 96 µM
O=Cc1cn(Cc2cccc(Cl)c2)c2ccccc12 | 15.9 µM | 48.5 µM | 12.9 µM | 26.8 µM | 5.25 µM | 18.6 µM | 7.27 µM | 34.1 µM | 12.2 µM | 28.5 µM | 20.3 µM | 45.7 µM | 10.3 µM | 31.3 µM | 5.76 µM | 22.4 µM | 4.76 µM | 25.2 µM | 7.7 µM | 26.4 µM
C=C1CC2(C[C@@H](c3ccccc3)O[C@@H](c3ccccc3)C2)OC1=O (stereo partly specified) |  | 13.4 µM |  | 9.01 µM |  | 4.24 µM |  | 9.44 µM |  | 7.48 µM |  | 3.02 µM |  | 7.48 µM |  | 14.5 µM |  | 2.57 µM |  | 11.3 µM
CCCCCCC#Cc1ccccc1C#CCO | 20.7 µM | 49 µM | 18.5 µM | 39 µM | 17 µM | 32.9 µM | 17.2 µM | 39.4 µM | 18.4 µM | 37.2 µM | 18.7 µM | 38.6 µM | 21.7 µM | 46.8 µM | 25.4 µM | 95.2 µM | 15 µM | 31.4 µM | 18.9 µM | 39.8 µM
Cn1c(=O)c(Oc2ccc(F)cc2F)cc2cnc(NC(CO)CO)nc21 | > 25 µM | > 25 µM | > 25 µM | > 25 µM | > 25 µM | > 25 µM | > 25 µM | > 25 µM | > 25 µM | > 25 µM | > 25 µM | > 25 µM | > 25 µM | > 25 µM | > 25 µM | > 25 µM | > 25 µM | > 25 µM | > 25 µM | > 25 µM
N#Cc1cccc(C(=O)Nc2cccc(NC(=O)c3cccc(C#N)c3)c2)c1 | 74.3 µM | > 100 µM | > 100 µM | > 100 µM | > 100 µM | > 100 µM | 39 µM | > 100 µM | > 100 µM | > 100 µM | > 100 µM | > 100 µM | 47.3 µM | > 100 µM | 77.6 µM | > 100 µM | 52 µM | > 100 µM | > 100 µM | > 100 µM
CC(C)C[C@H](NC(=O)[C@H]1O[C@@H]1C(=O)O)C(=O)NCCc1ccc(O)cc1 | > 100 µM | > 100 µM | > 100 µM | > 100 µM | > 100 µM | > 100 µM | > 100 µM | > 100 µM | > 100 µM | > 100 µM | > 100 µM | > 100 µM | > 100 µM | > 100 µM | > 100 µM | > 100 µM | > 100 µM | > 100 µM | > 100 µM | > 100 µM
CC1=CCC(OC(=O)C(C)(C)CCC(O)(C(=O)OC2(C(C)C)CCC3(C)OC3C2)C(C)C)(C(C)C)CC1 (stereo unspecified) | 0.279 µM | 1.16 µM | 0.107 µM | 0.311 µM | 0.696 µM | 1.51 µM | 0.735 µM | 3.57 µM | 0.355 µM | 1.04 µM | 0.13 µM | 0.439 µM | 0.611 µM | 15.5 µM | 0.281 µM | 0.987 µM | 0.234 µM | 8.85 µM | 0.79 µM | 1.78 µM
C=C(C)C(=O)OC1CC2=CC(CC3(C)OC3C3OC(=O)C(=C)C13)OC2=O (stereo unspecified) |  | 36.5 µM |  | 16.7 µM |  | 25 µM |  | 44.3 µM |  | 30.2 µM |  | 4.18 µM |  | 18.1 µM |  | 28.1 µM | 0.865 µM | 2.75 µM |  | 26.4 µM
